The Deep4Chem optical property database
Where “and” joins values, the source holds several entries; their conditions need not be identical. Identical values can stand only once. One block for each compound: values may come before it.

Experiment: solvent given as SMILES

- absorption maximum (in CN(C)C=O): 310 nm
Compound: Cc1nc2cccc(-c3nc4ccc([N+](=O)[O-])cc4[nH]3)c2c(=O)[nH]1

- absorption maximum (in C1CCOC1): 587 nm
Compound: CC1=[N+]2C(=C(c3ccc(C(=C(c4ccccc4)c4ccccc4)c4ccccc4)cc3)c3ccc(/C=C/c4ccc(C(=C(c5ccccc5)c5ccccc5)c5ccccc5)cc4)n3[B-]2(F)F)C=C1

- absorption maximum (in C1CCOC1): 398 nm
- absorption maximum (in CC#N): 394 nm
- absorption maximum (in CCCCCCC): 392 nm
- absorption maximum (in CS(C)=O): 401 nm
- absorption maximum (in ClCCl): 400 nm
Compound: C(=C\c1ccncn1)/c1ccc(N(c2ccccc2)c2ccccc2)cc1

- absorption maximum (in CS(C)=O): 516 nm
Compound: CCCCN1/C(=C/C=C/C2=[N+](C)c3ccccc3C2(C)C)Oc2ccccc21

- absorption maximum (in CCCCCCC): 162 nm
Compound: C=C

- absorption maximum (in ClCCl): 353 nm
Compound: CC(C)(C)c1ccc2c(c1)c1cc(C(C)(C)C)ccc1n2-c1ccc(-c2ccc3c(c2)C2(c4cc(-c5ccc(-n6c7ccc(C(C)(C)C)cc7c7cc(C(C)(C)C)ccc76)cc5)ccc4-3)c3ccccc3S(=O)(=O)c3ccccc32)cc1

- absorption maximum (in CC#N): 433 nm
Compound: CC(=O)c1c2c(c(C(C)=O)c3c1OC(CC(=O)O)O3)OCO2

- absorption maximum (in CN(C)C=O): 322 nm
Compound: Cc1ccc2nc(-c3cccc4nc(C)[nH]c(=O)c34)[nH]c2c1

- absorption maximum (in ClCCl): 684 nm
Compound: COC(=O)c1ccc(C2=C3C=c4sc(-c5cccs5)cc4=[N+]3[B-](F)(F)n3c2cc2sc(-c4cccs4)cc23)cc1

- absorption maximum (in C1CCCCC1): 331 nm
Compound: c1ccc(-c2c3c(cc4c2-c2ccccc2C4)-c2ccccc2C3)cc1

- absorption maximum (in ClCCl): 392 nm
Compound: CC(C)(C)NC(=O)c1ccc2ccc3cccc4c3c2c1c1c2ccccc2c2ccccc2c41

- absorption maximum (in CN(C)C=O): 334 nm
Compound: S=c1[nH]nc(-c2ccc(/C=C/c3ccc(-c4n[nH]c(=S)o4)cc3)cc2)o1

- absorption maximum (in CCCCCC): 338 nm
- absorption maximum (in CO): 338 nm
- absorption maximum (in ClCCl): 341 nm
Compound: Cc1ccc2ccc3cccc4ccc1c2c34

- absorption maximum (in ClCCl): 443 nm
Compound: COc1ccc2c(c1)CCC1=C(C#Cc3ccccc3)O[B-](F)(F)[O+]=C12

- absorption maximum (in C1CCCCC1): 311 nm
Compound: C[Si](C)(C)c1cccc2c(C#N)cccc12

- absorption maximum (in C1CCOC1): 408 nm
- absorption maximum (in CC#N): 405 nm
- absorption maximum (in CCO): 414 nm
- absorption maximum (in CCOC(C)=O): 407 nm
- absorption maximum (in ClCCl): 410 nm
- absorption maximum (in c1ccccc1): 422 nm
Compound: CC1(C)CC(/C=C/c2ccc(-n3c4ccccc4c4ccccc43)cc2)=CC(=C(C#N)C#N)C1

- absorption maximum (in ClCCl): 315 nm
Compound: COc1cc2c(cc1OC)C1=C[C@H](c3ccc(C)cc3)C3(C(C#N)=C(C#N)N1CC2)c1cc(Cl)ccc1-c1ccc(Cl)cc13

The remaining lines, values behind:

Compound: CCN(CC)c1ccc2cc(-c3ccc(-c4ccc5c6ccccc6c6c7cc(-c8ccc(-c9cc%10ccc(N(CC)CC)cc%10oc9=O)cc8)ccc7c7ccccc7c6c5c4)cc3)c(=O)oc2c1
- absorption maximum (in ClC(Cl)Cl): 412 nm

Compound: CCOC(=O)CCOc1ccccc1C(c1c(C)[nH]c2ccccc12)c1c(C)[nH]c2ccccc12
- absorption maximum (in CO): 291 nm
- absorption maximum (in O): 290 nm

Compound: CCN(CC)c1ccc(/C=C/c2ccc(-c3ccc(/C=C/c4ccc(N(CC)CC)cc4)s3)s2)cc1
- absorption maximum (in Cc1ccccc1): 467.9 nm

Compound: COc1cc2c(cc1-c1ccc(N(c3ccccc3)c3ccccc3)cc1)Cc1c3c(c4c(c1-2)-c1cc(OC)c(-c2ccc(N(c5ccccc5)c5ccccc5)cc2)cc1C4)C(=O)N(CCC(C)C)C3=O
- absorption maximum (in C1CCOC1): 428 nm

Compound: CCCCCCCCC1(CCCCCCCC)c2cc(-c3ccc(C=C4C(=O)c5ccccc5C4=O)cc3)ccc2-c2ccc(-c3ccc(C=C4C(=O)c5ccccc5C4=O)cc3)cc21
- absorption maximum (in C1CCOC1): 436 nm
- absorption maximum (in CC(C)=O): 433 nm
- absorption maximum (in CCCCCC): 419 nm
- absorption maximum (in CS(C)=O): 441 nm
- absorption maximum (in Cc1ccccc1): 429 nm
- absorption maximum (in ClC(Cl)Cl): 444 nm

Compound: CC(C)Nc1cc2oc3cc(NC(C)C)c(F)cc3c(=O)c2cc1F
- absorption maximum (in CCO): 370 nm

Compound: Cc1ccc2nc3c(nc2c1)c(-c1ccccc1)nn3C
- absorption maximum (in C1CCCCC1): 424 nm
- absorption maximum (in C1CCOC1): 425 nm
- absorption maximum (in CC#N): 423 nm

Compound: CCOC(=O)C1(O)c2cc3ccc4cccc5ccc(c2C(=O)N1C(C)(C)C)c3c45 (centres undefined)
- absorption maximum (in ClC(Cl)Cl): 385 nm

Compound: Cc1ccc(-n2c3ccc(-c4ccc(-c5nc6ccccc6n5-c5ccccc5)cc4)cc3c3cc(-c4ccc(-c5nc6ccccc6n5-c5ccccc5)cc4)ccc32)cc1
- absorption maximum (in ClC(Cl)Cl): 318 nm

Compound: CCCCCCCCc1ccc(-c2ccc(/C=C(\C#N)c3ccc(-c4cccc5cccc(-c6ccc(/C(C#N)=C/c7ccc(-c8ccc(CCCCCCCC)cc8)cc7)cc6)c45)cc3)cc2)cc1
- absorption maximum (in Cc1ccccc1): 350 nm

Compound: CC(C)(C)c1ccc(C2=C(c3ccc(C(C)(C)C)cc3)C(c3ccc(C(C)(C)C)cc3)=[N+]3C2=C(c2ccccc2)c2c(-c4ccc(C(C)(C)C)cc4)c(-c4ccc(C(C)(C)C)cc4)c(-c4ccc(C(C)(C)C)cc4)n2[B-]3(F)F)cc1
- absorption maximum (in C1CCCCC1): 589 nm
- absorption maximum (in C1CCOC1): 585 nm
- absorption maximum (in CC#N): 563 nm
- absorption maximum (in Cc1ccccc1): 591 nm
- absorption maximum (in ClCCl): 579 nm

Compound: CCN(CC)c1ccc2cc(-c3nc4ccccc4s3)c(=O)oc2c1
- absorption maximum (in C1CCCCC1): 425.4 nm
- absorption maximum (in CC1CCCCC1): 425.4 nm
- absorption maximum (in CC#N): 454 nm and 447 nm
- absorption maximum (in CCC(C)CC): 425 nm
- absorption maximum (in CCCCCC): 425 nm
- absorption maximum (in CCO): 460 nm
- absorption maximum (in CCOC(C)=O): 439.4 nm

Compound: Fc1c(-c2nnc(-c3ccccc3)o2)c(-n2c3ccccc3c3ccccc32)c(F)c(-n2c3ccccc3c3ccccc32)c1-n1c2ccccc2c2ccccc21
- absorption maximum (in Cc1ccccc1): 361 nm

Compound: CCCCCCC(CCCCCC)N1C(=O)c2cccc3c(-c4ccc(-c5ccc(OC)cc5)cc4)ccc(c23)C1=O
- absorption maximum (in CCCCCC): 354 nm
- absorption maximum (in CCCCCCCCCCCCCC): 357.6 nm
- absorption maximum (in CCCCCCCCCCCO): 369.4 nm
- absorption maximum (in CCCCO): 366 nm
- absorption maximum (in CN(C)C=O): 369 nm
- absorption maximum (in Cc1ccccc1): 364.8 nm
- absorption maximum (in ClC(Cl)Cl): 364.4 nm

Compound: C(=C1c2ccccc2CCc2ccccc21)c1ccc(C=C2c3ccccc3CCc3ccccc32)cc1
- absorption maximum (in C1CCOC1): 330 nm

Compound: CC(C)(C)c1ccc(C(C)(C)C)c(N2C(=O)c3cccc4c(-c5ccc(-c6ccc(N(c7ccccc7)c7ccccc7)cc6)s5)ccc(c34)C2=O)c1
- absorption maximum (in CO): 447 nm
- absorption maximum (in CS(C)=O): 445 nm
- absorption maximum (in Cc1ccccc1): 440 nm

Compound: Clc1ccc(/C=C/c2ccc(-c3nc4c5cccnc5c5ncccc5c4[nH]3)cc2)cc1
- absorption maximum (in C1CCOC1): 376 nm
- absorption maximum (in CC#N): 368 nm
- absorption maximum (in CO): 360 nm
- absorption maximum (in ClCCl): 377 nm

Compound: F[B-]1(F)OC(c2ccc(C(F)(F)F)cc2)=Cc2c3ccccc3cc[n+]21
- absorption maximum (in ClC(Cl)Cl): 398.5 nm

Compound: COc1cc(OC)cc(-c2ccc(-c3ccc(C#N)s3)s2)c1
- absorption maximum (in C1CCCCC1): 360 nm
- absorption maximum (in C1COCCO1): 366 nm
- absorption maximum (in CC#N): 364 nm
- absorption maximum (in CC(C)O): 365 nm
- absorption maximum (in CCCCO): 367 nm
- absorption maximum (in CCO): 365 nm
- absorption maximum (in CCOC(C)=O): 365 nm
- absorption maximum (in CN(C)C=O): 370 nm
- absorption maximum (in CO): 364 nm
- absorption maximum (in CS(C)=O): 372 nm
- absorption maximum (in Cc1ccccc1): 366 nm
- absorption maximum (in ClC(Cl)Cl): 367 nm
- absorption maximum (in ClCCl): 366 nm
- absorption maximum (in O): 337 nm

Compound: O=P1(c2ccccc2)C(c2cccs2)=Cc2ccccc21 (centres undefined)
- absorption maximum (in C1CCOC1): 368 nm

Compound: CCOC(=O)c1c2c3c(ccc(Cl)c3c3cc4c(cc13)[Si](C)(C)O[Si]4(C)C)N(C)C2=O
- absorption maximum (in CC#N): 378 nm

Compound: Cc1cc(-c2ccccc2)nc2c1ccc1nc(-c3ccccc3)cn12
- absorption maximum (in CC#N): 347 nm
- absorption maximum (in CCCCOC(C)=O): 350 nm
- absorption maximum (in CCOC(C)=O): 352 nm
- absorption maximum (in CO): 345 nm
- absorption maximum (in ClC(Cl)Cl): 350 nm
- absorption maximum (in ClCCl): 348 nm
- absorption maximum (in c1ccccc1): 351 nm

Compound: O=C1C=C(Nc2cccc(F)c2F)C(=O)c2ccccc21
- absorption maximum (in CCCCCC): 428 nm
- absorption maximum (in CO): 439 nm

Compound: Cn1c(-c2ccc(-c3nc(-c4ccccc4)c(-c4ccccc4)n3C)s2)nc(-c2ccccc2)c1-c1ccccc1
- absorption maximum (in CC#N): 391 nm

Compound: c1cc2c3c(c1)-c1cccc4cccc(c14)B3c1cccc3cccc-2c13
- absorption maximum (in Cc1ccccc1): 466 nm

Compound: c1ccc(-c2nc(-c3ccccc3)nc(-c3ccc(-n4c5ccccc5c5cc6c(cc54)C(c4ccccc4)(c4ccccc4)c4ccccc4-6)cc3)n2)cc1
- absorption maximum (in Cc1ccccc1): 366 nm

Compound: CN(C)c1ccc(/C=C/C=C2\CCCC2=O)cc1
- absorption maximum (in CC#N): 409 nm
- absorption maximum (in CC(C)=O): 416 nm
- absorption maximum (in CC(C)O): 420 nm
- absorption maximum (in CCCCCC): 394 nm
- absorption maximum (in CCCCO): 425 nm
- absorption maximum (in CCCO): 422 nm
- absorption maximum (in CCO): 422 nm
- absorption maximum (in CCOC(C)=O): 408 nm
- absorption maximum (in CCOCC): 399 nm
- absorption maximum (in CN(C)C=O): 408 nm
- absorption maximum (in CO): 420 nm
- absorption maximum (in CS(C)=O): 416 nm
- absorption maximum (in Cc1ccccc1): 409 nm
- absorption maximum (in ClC(Cl)(Cl)Cl): 407 nm
- absorption maximum (in ClC(Cl)Cl): 404 nm
- absorption maximum (in ClCCl): 420 nm
- absorption maximum (in c1ccccc1): 411 nm
- absorption maximum (in c1ccncc1): 419 nm

Compound: CN(C)c1ccc(/C=C/c2cc(/C=C/c3ccc(N(C)C)cc3)nc(/C=C/c3ccc(N(C)C)cc3)n2)cc1
- absorption maximum (in ClCCl): 402 nm

Compound: CC[N+]1(CC)CN2C(C)=CC(C)=C(C(=O)O)C2=N1
- absorption maximum (in CN(C)C=O): 346 nm
- absorption maximum (in O): 343 nm

Compound: CCCCCCc1ccc(-n2c3c4cccc(OC)c4nc(-c4ccc(C)cc4)c3c3c2c2c(-c4ccc(C)cc4)nc4c(OC)cccc4c2n3-c2ccc(CCCCCC)cc2)cc1
- absorption maximum (in ClC(Cl)Cl): 315 nm

Compound: Cc1cc(=O)c2c(ccc3ccc(O)cc32)o1
- absorption maximum (in CC#N): 336 nm

Compound: CN(C)c1ccc(-c2nc(-c3ccccc3)n3ccccc23)cc1
- absorption maximum (in ClC(Cl)Cl): 314 nm

Compound: CC1(C)c2ccccc2N(c2ccc3c(c2)c2cc(N4c5ccccc5C(C)(C)c5ccccc54)cc4c5ccccc5n3c42)c2ccccc21
- absorption maximum (in C1CCOC1): 367 nm

Compound: CC1=C(C#Cc2ccc(B(c3c(C)cc(C)cc3C)c3c(C)cc(C)cc3C)cc2)C(C)=[N+]2C1=C(c1ccccc1)c1c(C)c(C#Cc3ccc(B(c4c(C)cc(C)cc4C)c4c(C)cc(C)cc4C)cc3)c(C)n1[B-]2(F)F
- absorption maximum (in ClCCl): 576 nm
